Here are results for 7 compounds from the supplement of paper PMC11061612.

The test system of assay [1] is ST486 (Burkitt's Lymphoma). Nature of the assay: combination Emax (second highest fraction inhibited in the dose matrix, 72 h); higher = more inhibition; extreme values may be limits of the assay. In outline:
(§1)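 Cell lines in DMEM/F12 or RPMI with 10% FBS were plated in 1536-well plates, held 24 hours at 37°C, 5% CO2, then given two-drug dose matrices for 72 hours (DMSO typically 0.2%). Viability was read by CellTiter-Glo 2.0 luminescence and scaled as inhibition from 0 (vehicle wells) to 1 (blank wells). Combination Emax is the second-highest inhibition in the matrix; Bliss excess is observed combination effect minus expected EA + EB − EA·EB, EA and EB being single-agent effects.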

The subject of assay [2] is KMS-12-BM (Plasma Cell Myeloma). The experiment in a line: Bliss excess, mean over the matrix (fraction); higher = more synergy. In outline: as §1
The test system of assay [3] is NCI-H661 (Non-Small Cell Lung Carcinoma). The description is as above. Summed up:
as §1

For assay [4], the system named is SU-DHL-5 (B-Cell Non-Hodgkin's Lymphoma). Described as above. In outline: as §1
Assay [5] deals with MOLM-13 (Acute Myeloid Leukemia). The description is as above. Summed up: as §1
In the next assay the test system is NCI-H2731 (Mesothelioma). The description is as above. In outline: as §1
In assay [6] the test system is ESO51 (Esophageal Adenocarcinoma). The description is as above. Summed up: as §1
For assay [7], the system named is 8505C (Thyroid Gland Carcinoma). Described as above. Summed up:
as §1

The test system of assay [8] is NCI-H929 (Plasma Cell Myeloma). The assay is described as above. Summed up:
as §1

Assay [9] concerns COR-L279 (Small Cell Lung Carcinoma). The assay is described as above. In outline: as §1
For assay [10], the system named is JHH-4 (Hepatocellular Carcinoma). Described as above. In outline: as §1
The next assay deals with M059J (Glioblastoma). The assay is described as above. In outline:
as §1

A further assay concerns G-361 (Melanoma). Described as above. Summed up: as §1
The test system of assay [11] is T-T (Esophageal Squamous Cell Carcinoma). The assay is described as above. Summed up: as §1
Another assay has as its system SJSA-1 (Osteosarcoma). The assay is described as above. Summed up:
as §1

Assay [12] has as its system KY821 (Acute Myeloid Leukemia). Described as above. Summed up: as §1
Assay [13] deals with RPMI-8226 (Plasma Cell Myeloma). Described as above. Summed up: as §1
Assay [14] concerns KP-3 (Pancreatic Carcinoma). The description is as above. Summed up:
as §1

The subject of assay [15] is SNU-398 (Hepatocellular Carcinoma). The description is as above. Summed up:
as §1

Assay [16] relates to NCI-H520 (Squamous Cell Lung Carcinoma). The description is as above. In outline: as §1
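For Bliss excess, mean over the matrix in this document: after 72 h of two-drug dosing.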

On to `NC1(C(=O)N[C@@H](CCO)c2ccc(Cl)cc2)CCN(c2ncnc3[nH]ccc23)CC1` [Capivasertib] + C[C@@H]1COCCN1C2=NC(=NC(=C2)C3(CC3)[S@](=N)(=O)C)C4=C5C=CNC5=NC=C4 [AZD6738] (first compound max 10 µM, 7x7, partner max 10 µM), for which the “combination Emax” value in assay [1] was 0.881. Further, the Bliss excess in [2] was 0.0398; in assay [3], -0.0645; in [4], 0.0087; in assay [5], -0.02; with NCI-H2731 (Mesothelioma), -0.0267; in assay [6] it was -0.0208. In addition, the Bliss excess is -0.0138 in assay [7]; -0.0009 in assay [8]; 0.0329 in assay [9]; 0.0086 in assay [10]; -0.0366 with M059J (Glioblastoma); -0.0397 in the assay on G-361 (Melanoma). The Bliss excess in assay [11] was -0.0452; with SJSA-1 (Osteosarcoma), -0.0414; in assay [12], -0.0558; in assay [13], -0.0344; in assay [14], -0.0499; in assay [15] it was -0.0748. For the same compound, the Bliss excess in assay [16] was -0.0357.
On to `NC1(C(=O)N[C@@H](CCO)c2ccc(Cl)cc2)CCN(c2ncnc3[nH]ccc23)CC1` [Capivasertib] + Cn1cnc2c(F)c(Nc3ccc(Br)cc3Cl)c(C(=O)NOCCO)cc21 [Selumetinib] (first compound max 10 µM, 7x7, partner max 10 µM), for which the “combination Emax” value in [1] was determined as 0.559. In addition, the Bliss excess in assay [2] is 0.0441; in assay [3] it was -0.0074; in assay [4], 0.0547; in assay [5] it was 0.0677; with NCI-H2731 (Mesothelioma), -0.0115; in [6], 0.0417. Also, the Bliss excess in assay [7] is 0.0302; in [8], 0.0041; in assay [9], 0.0214; in assay [10], -0.0762; in the assay on M059J (Glioblastoma) it was -0.0162; in the assay with G-361 (Melanoma), 0.0429. In addition, the Bliss excess in [11] was 0.095; with SJSA-1 (Osteosarcoma), -0.0321; in assay [12] it was 0.0177; in assay [13] it was 0.0411; in [14] it was 0.0087; in assay [15], 0.0287. Further, in assay [16], the Bliss excess is -0.015.
`Cc1nc(Nc2ncc(C(=O)Nc3c(C)cccc3Cl)s2)cc(N2CCN(CCO)CC2)n1` [Dasatinib] + CC(=O)Nc1cccc(-n2c(=O)n(C3CC3)c(=O)c3c(Nc4ccc(I)cc4F)n(C)c(=O)c(C)c32)c1 [Trametinib] (first compound max 2 µM, 7x7, partner max 1 µM): in [1], the “combination Emax” value is 0.611. Moreover, the Bliss excess in [2] is -0.0046; in [3] it was -0.0528; in assay [4], 0.0159; in assay [5], 0.0284; in the assay with NCI-H2731 (Mesothelioma) it was 0.0298; in assay [6], -0.0066. For the same compound, the Bliss excess in assay [7] was 0.0809; in [8] it was -0.075; in assay [9], -0.0073; in [10], -0.116; in the assay on M059J (Glioblastoma) it was -0.0946; in the assay with G-361 (Melanoma) it was -0.0282. Besides, the Bliss excess in assay [11] was 0.0381; in the assay with SJSA-1 (Osteosarcoma), 0.0005; in assay [12], -0.144; in [13], 0.0121; in [14] it was 0.0304; in assay [15], -0.0842. Moreover, the Bliss excess in [16] was -0.0488.
For `COc1cccc2c1C(=O)c1c(O)c3c(c(O)c1C2=O)C[C@@](O)(C(=O)CO)C[C@@H]3O[C@H]1C[C@H](N)[C@H](O)[C@H](C)O1` [Doxorubicin] + Cc1cc2ncnn2cc1Nc1ncc2c(n1)n(C1CCOCC1)c(=O)n2C [AZD7648] (first compound max 1 µM, 7x7, partner max 10 µM), in assay [1], the “combination Emax” value is 0.955. The Bliss excess stood at 0.0946 in [2]; 0.0465 in [3]; 0.111 in assay [4]; 0.0551 in assay [5]; 0.0506 with NCI-H2731 (Mesothelioma); 0.0291 in [6]. The Bliss excess in assay [7] was 0.0859; in assay [8], 0.126; in assay [9], 0.0715; in assay [10] it was 0.0376; in the assay on M059J (Glioblastoma), -0.0255; with G-361 (Melanoma), 0.0791. For the same compound, the Bliss excess in assay [11] is 0.0318; in the assay on SJSA-1 (Osteosarcoma), 0.0555; in assay [12], 0.0822; in assay [13], 0.124; in assay [14], -0.0405; in assay [15], 0.056. Also, in assay [16], the Bliss excess was determined as 0.0158.
As to `COc1cc2ncnc(Nc3ccc(F)c(Cl)c3)c2cc1OCCCN1CCOCC1` [Gefitinib] + CC(C)n1c(=O)n(C)c2cnc3cc(F)c(-c4ccc(OCCCN5CCCCC5)nc4)cc3c21 [AZD1390] (first compound max 10 µM, 7x7, partner max 0.3 µM), the “combination Emax” value in assay [1] was 0.35. Moreover, the Bliss excess in [2] is -0.0267; in assay [3], -0.097; in assay [4] it was -0.0317; in [5] it was -0.0462; with NCI-H2731 (Mesothelioma), -0.0434; in assay [6] it was -0.0488. In addition, the Bliss excess in assay [7] is -0.0691; in assay [8], -0.0092; in [9] it was -0.0419; in assay [10], -0.0751; with M059J (Glioblastoma), -0.0325; in the assay with G-361 (Melanoma) it was -0.0718. In addition, the Bliss excess is -0.0411 in assay [11]; -0.0562 in the assay with SJSA-1 (Osteosarcoma); -0.0553 in [12]; -0.0547 in assay [13]; -0.074 in assay [14]; -0.0627 in assay [15]. Besides, in assay [16], the Bliss excess was -0.0477.
`CS(=O)(=O)CCNCc1ccc(-c2ccc3ncnc(Nc4ccc(OCc5cccc(F)c5)c(Cl)c4)c3c2)o1` [Lapatinib] + C[C@@H](Oc1cc(-c2cnn(C3CCNCC3)c2)cnc1N)c1c(Cl)ccc(F)c1Cl [Crizotinib] (first compound max 10 µM, 7x7, partner max 10 µM): the “combination Emax” value in assay [1] worked out at 0.942. Moreover, the Bliss excess is 0.0256 in [2]; -0.0252 in assay [3]; -0.0186 in assay [4]; 0.0308 in assay [5]; -0.0456 in the assay with NCI-H2731 (Mesothelioma); 0.0885 in assay [6]. The Bliss excess in assay [7] was -0.0441; in [8] it was -0.062; in assay [9], -0.06; in [10], 0.0041; with M059J (Glioblastoma), -0.0733; in the assay on G-361 (Melanoma), -0.0416. In addition, the Bliss excess was -0.0172 in [11]; -0.017 with SJSA-1 (Osteosarcoma); 0.0312 in [12]; -0.0127 in assay [13]; -0.0234 in assay [14]; -0.0451 in [15]. Besides, the Bliss excess in assay [16] is -0.0975.
With `CC(=O)c1c(C)c2cnc(Nc3ccc(N4CCNCC4)cn3)nc2n(C2CCCC2)c1=O` [Palbociclib] + CC1(C)CCC(CN2CCN(c3ccc(C(=O)NS(=O)(=O)c4ccc(NCC5CCOCC5)c([N+](=O)[O-])c4)c(Oc4cnc5[nH]ccc5c4)c3)CC2)=C(c2ccc(Cl)cc2)C1 [Venetoclax] (first compound max 10 µM, 7x7, partner max 1 µM), the “combination Emax” value in assay [1] is 0.581. Moreover, the Bliss excess was 0.0637 in [2]; -0.0593 in assay [3]; -0.0201 in assay [4]; 0.04 in assay [5]; -0.0002 in the assay with NCI-H2731 (Mesothelioma); -0.0078 in assay [6]. The Bliss excess in [7] was -0.0584; in assay [8], -0.112; in [9], -0.002; in [10], -0.0003; in the assay with M059J (Glioblastoma), -0.0511; in the assay with G-361 (Melanoma), 0.016. Also, the Bliss excess in assay [11] is -0.027; in the assay on SJSA-1 (Osteosarcoma), -0.0295; in assay [12], 0.0485; in [13], 0.0461; in assay [14] it was -0.0533; in assay [15], 0.0232. In addition, in assay [16], the Bliss excess is -0.0209.
